ChEMBL document CHEMBL4316608, “Artemisinin-indole and artemisinin-imidazole hybrids: Synthesis, cytotoxic evaluation and reversal effects on multidrug resistance in MCF-7/ADR cells” (Bioorg Med Chem Lett, 2019)
Structures can show the parent of a compound that is named as a salt.

Experiments:
[1] = system: MCF7; test: Antiproliferative activity against human MCF7 cells measured after 48 hrs by MTT assay; format: functional, cell-based; conditions: MCF7, 48 h
[2] = system: A549; test: Antiproliferative activity against human A549 cells measured after 48 hrs by MTT assay; format: functional, cell-based; conditions: A549, 48 h
[3] = system: HepG2; test: Antiproliferative activity against human HepG2 cells measured after 48 hrs by MTT assay; format: functional, cell-based; conditions: HepG2, 48 h
[4] = system: MDA-MB-231; test: Antiproliferative activity against human MDA-MB-231 cells measured after 48 hrs by MTT assay; format: functional, cell-based; conditions: MDA-MB-231, 48 h
[5] = system: L02; test: Cytotoxicity against human L02 cells measured after 48 hrs by MTT assay; format: cell-based; conditions: L02, 48 h
[6] = Toxicity in human MCF7 cells assessed as inhibition of cell proliferation at 5 uM measured after 48 hrs by MTT assay; format: cell-based
[7] = system: NCI/ADR-RES; test: Potentiation of adriamycin-induced antiproliferative activity against human MCF7/ADR cells assessed as fold reduction in adriamycin IC50 at 5 uM measured after 48 hrs by MTT assay; format: functional
[8] = system: MCF7; test: Potency index, ratio of artemisinin IC50 to test compound IC50 for human MCF7 cells; format: functional
[9] = system: MCF7; test: Cell cycle arrest in human MCF7 cells assessed as accumulation at G1 phase at 2.5 uM measured after 48 hrs by propidium iodide staining based flow cytometry (reference value: 52.44%); format: functional
[10] = system: MCF7; test: Cell cycle arrest in human MCF7 cells assessed as accumulation at S phase at 2.5 uM measured after 48 hrs by propidium iodide staining based flow cytometry (reference value: 24.31%); format: functional
[11] = system: MCF7; test: Cell cycle arrest in human MCF7 cells assessed as accumulation at G2 phase at 2.5 uM measured after 48 hrs by propidium iodide staining based flow cytometry (reference value: 23.25%); format: functional
[12] = system: MCF7; test: Cell cycle arrest in human MCF7 cells assessed as accumulation at G1 phase at 5 uM measured after 48 hrs by propidium iodide staining based flow cytometry (reference value: 52.44%); format: functional
[13] = system: MCF7; test: Cell cycle arrest in human MCF7 cells assessed as accumulation at S phase at 5 uM measured after 48 hrs by propidium iodide staining based flow cytometry (reference value: 24.31%); format: functional
[14] = system: MCF7; test: Cell cycle arrest in human MCF7 cells assessed as accumulation at G2 phase at 5 uM measured after 48 hrs by propidium iodide staining based flow cytometry (reference value: 23.25%); format: functional
[15] = system: MCF7; test: Cell cycle arrest in human MCF7 cells assessed as accumulation at G1 phase at 10 uM measured after 48 hrs by propidium iodide staining based flow cytometry (reference value: 52.44%); format: functional
[16] = system: MCF7; test: Cell cycle arrest in human MCF7 cells assessed as accumulation at S phase at 10 uM measured after 48 hrs by propidium iodide staining based flow cytometry (reference value: 24.31%); format: functional
[17] = system: MCF7; test: Cell cycle arrest in human MCF7 cells assessed as accumulation at G2 phase at 10 uM measured after 48 hrs by propidium iodide staining based flow cytometry (reference value: 23.25%); format: functional
[18] = system: CCRF-CEM; test: Cytotoxicity against human CCRF-CEM cells by XTT assay; format: functional, cell-based
[19] = system: ADR5000 cell line; test: Cytotoxicity against human CEM/ADR5000 cells by XTT assay; format: functional, cell-based

Compound	IC50 [1] [µM]	IC50 [2] [µM]	IC50 [3] [µM]	IC50 [4] [µM]	IC50 [5] [µM]	inhibition at 48 h, 5 µM [6] [%]	fold change (FC) [7]	further results
COc1ccc2[nH]cc(C(=O)OC3O[C@@H]4O[C@@]5(C)CC[C@H]6[C@H](C)CC[C@@H]([C@H]3C)[C@@]46OO5)c2c1 (stereo partly specified)	14.5	13.4	27.7	70.4	36.4	19.8	71.89	
C[C@H]1[C@H](OC(=O)CCC(=O)OCCCn2cc(C#N)nc2Cl)O[C@@H]2O[C@@]3(C)CC[C@H]4[C@H](C)CC[C@@H]1[C@@]24OO3	13.8	19.6	> 50	> 100	72.8	12.8	8.51	
C[C@H]1[C@H](OC(=O)CCC(=O)OCCCn2cnc(Br)c2)O[C@@H]2O[C@@]3(C)CC[C@H]4[C@H](C)CC[C@@H]1[C@@]24OO3	12.4	26	41.6	80.9	> 100	23.2	5.6	
C[C@H]1[C@H](OC(=O)CCC(=O)OCCCn2cnc([N+](=O)[O-])c2)O[C@@H]2O[C@@]3(C)CC[C@H]4[C@H](C)CC[C@@H]1[C@@]24OO3	12.7	20	33.3	80.9	34.3	22.3	15.72	
C[C@@H]1CC[C@H]2[C@@H](C)C(OC(=O)c3c[nH]c4ccc(Cl)cc34)O[C@@H]3O[C@@]4(C)CC[C@@H]1[C@]32OO4 (stereo partly specified)	5.25	6.17	10.8	> 100	31	32.1	117	Ratio IC50 [8]: 10; Activity [9]: 48.36%; Activity [10]: 24.24%; Activity [11]: 27.4%; Activity [12]: 43.76%; Activity [13]: 21.89%; Activity [14]: 34.35%; Activity [15]: 39.61%; Activity [16]: 21.41%; Activity [17]: 38.97%
C[C@H]1[C@H](OC(=O)CCC(=O)OCCCCn2cnc(Br)c2)O[C@@H]2O[C@@]3(C)CC[C@H]4[C@H](C)CC[C@@H]1[C@@]24OO3	11.6	18.9	35.9	> 100	41.3	8.95	5.56	
C[C@H]1[C@H](OC(=O)CCC(=O)OCCn2cnc(Br)c2)O[C@@H]2O[C@@]3(C)CC[C@H]4[C@H](C)CC[C@@H]1[C@@]24OO3	13.1	24.7	31.9	> 100	66.9	12.4	6.37	
C[C@H]1[C@H](OC(=O)CCC(=O)OCCCn2cnc(C#N)c2C#N)O[C@@H]2O[C@@]3(C)CC[C@H]4[C@H](C)CC[C@@H]1[C@@]24OO3	16.2	26.7	> 50	93.2	66.2	15	4.37	
COc1ccc(CCN(C)CCCC(C#N)(c2ccc(OC)c(OC)c2)C(C)C)cc1OC (stereo unspecified)							39.62	
C[C@@H]1CC[C@H]2[C@@H](C)C(=O)O[C@@H]3O[C@@]4(C)CC[C@@H]1[C@]32OO4 [ARTEMISININ]	> 50	> 50	> 50	> 100	> 100			
C[C@H]1[C@@H](O)O[C@@H]2O[C@@]3(C)CC[C@H]4[C@H](C)CC[C@@H]1[C@@]24OO3 [ARTENIMOL]	34.3	45.3	31.7	58.7	40.2			IC50 [18]: 0.87 µM; IC50 [19]: 1.84 µM
C[C@H]1[C@H](OC(=O)CCC(=O)O)O[C@@H]2O[C@@]3(C)CC[C@H]4[C@H](C)CC[C@@H]1[C@@]24OO3 [ARTESUNATE]	38.7	50.7	39.9	75.7	72.2			
COc1cccc2c1C(=O)c1c(O)c3c(c(O)c1C2=O)C[C@@](O)(C(=O)CO)C[C@@H]3O[C@H]1C[C@H](N)[C@H](O)[C@H](C)O1 [DOXORUBICIN HYDROCHLORIDE]		1.13			0.79			
